Source: patent publication US20160199434A1, “COMPOSITIONS AND METHODS FOR MODULATING DNA METHYLATION” (OHIO STATE INNOVATION FOUNDATION, priority 2013, published 2016)
“Also recorded” adds a separate entry of the source.

What was measured:
[1] = tested on: H1703 squamous cell carcinoma; test: XTT cell survival assay, H1703 lung cancer cells; type: cell-based, human; conditions: H1703, increasing doses (FIG. 13B)
From the text: (§1) FIGS. 13A-13B show XTT cell survival assays for normal lung epithelial cells (BEAS-2B) and lung cancer cells (H1703 squamous cell carcinoma and A549 adenocarcinoma) in response to increasing doses of AKB-6899.

A549 adenocarcinoma = test: XTT cell survival assay, A549 lung cancer cells; type: cell-based, human; conditions: A549, increasing doses (FIG. 13B)
From the text: as §1

PyMT tumor cells = test: Trypan Blue cell death check in PyMT tumor cells; type: cell-based; conditions: compared to control cells
Description: (§2) Because DSP is regulated by ER/PR expression, and because late-stage PyMT tumors lose ER/PR-positivity and heavily metastasize to the lymph nodes and lungs (Lin et al., 2003), the effects of AKB-6899 on more global events that regulate gene expression was evaluated. PyMT tumor cells in culture were treated with DMSO or AKB-6899. Methylation-specific PCR for CpG islands in the desmoplakin promoter were performed. […] Trypan Blue confirmed no cell death in AKB-6899 treated cells when compared to control cells. The experiment was repeated and RNA was isolated from the cells. RT-PCR was performed and the regulation of DNA methyltransferases (DNMTs) was evaluated. […] (FIG. 1A). The decrease in mRNA levels of DNMT-1 and DNMT-3a increased the mRNA level of DSP (FIG. 4A) and increased desmoplakin protein expression (FIG. 5A).

DNMT-3a [2] = test: DNMT-3a mRNA expression by RT-PCR in MDA-MB-231 tumor cells; type: cell-based, human; conditions: 25 μM, 24 hours, compared to DMSO (FIG. 1B)
Description: (§3) FIGS. 1A-1E show DNA methyltransferase mRNA expression in vitro and in vivo. […] PyMT tumor cells were left untreated, were treated with DMSO, or were treated with AKB-6899 (10, 25, or 50 μM) for 24 hours. The cells were subjected to Trizol extraction to recover total RNA. cDNA was synthesized for RT-PCR of DNMT-1 and DNMT-3a mRNA expression. […] Human MDA-MB-231 tumor cells were left untreated, were treated with DMSO, or were treated with AKB-6899 (25 μM) for 24 hours. Total RNA was isolated for RT-PCR. FIG. 1C (DNMT-1), FIG. 1D (DNMT-3a), and FIG. 1E (DNMT-3b) compare the effect of AKB-6899 with the effect of 5-aza-2′deoxycytidine (5-AZA) as assessed by RT-PCR in human cervical tumors implanted in mice that were either untreated (UTX), treated with DMSO, treated with 5-AZA, or treated with AKB-6899 (17.5 mg/kg).
To determine whether the decrease in DNMT expression and the increase in DSP expression were relevant in human cancer, the level of desmoplakin expression in MDA-MB-231 human triple negative breast cancer cells was determined. […] (FIG. 3B).

DSP promoter = test: Percent CpG methylation of DSP promoter in HeLa cells; type: cell-based, human; conditions: 5 or 25 μM, compared to DMSO and PBA (FIG. 6B)
Description: HeLa cervical cancer cells were left untreated, were treated with DMSO, were treated with 5-AZA, were treated with AKB-6899 (5 or 25 μM), or were treated with PBA (2 mM).

DNMT-1 = DNMT-1 mRNA expression by RT-PCR in PyMT tumor cells; type: cell-based, mouse; conditions: for DNMT-1 mRNA expression: PyMT tumor cells, 24 hours, compared to DMSO (FIG. 1A)
Description: as §3, §2

[3] = tested on: desmoplakin (DSP) gene promoter; test: Methylation of DSP promoter in MCF-7 breast cancer cells; type: cell-based, human
Description: FIGS. 3A-3E show the effect of AKB-6899 (25 μM) on methylation of the desmoplakin (DSP) gene promoter in PyMT breast cancer cells (3A), human MDA-MB-231 triple negative breast cancer cells (3B), human C8161.9 melanoma cells (3C), and human MCF-7 breast cancer cells (3D). In FIG. 3A, the DSP promoter was 100% unmethylated (AKB-6899) vs. 99.99% methylated (vehicle). In FIG. 3B, the DSP promoter was 99.62% unmethylated (AKB-6899) v. 99.89% (vehicle). In FIG. 3C, the DSP promoter was 99.90% unmethylated (AKB-6899) v. 42.04% (vehicle). In FIG. 3D, the DSP promoter was 92.48% unmethylated (AKB-6899) v. 98.48% (vehicle). In FIG. 3E, when compared to the vehicle (DMSO), treatment of PyMT cells with AKB-6899 increased DSP expression.
The gene expression signatures from the tumors of PyMT breast tumor-bearing mice that were treated with either vehicle or AKB-6899 were evaluated. […] Methylation-specific PCR on the desmoplakin promoter was performed. The level of hypomethylation was near complete.

DNMT-3b = DNMT-3b transcription in H1703 lung cancer cells; type: cell-based, human; conditions: H1703 cells in vitro, dose-dependent (FIG. 10A)
From the text: In FIG. 10A, AKB-6899 inhibited DNMT-1, DNMT-3a, and DNMT-3b transcription in a dose-dependent manner in human squamous cell carcinoma lung cancer cells (H1703), in vitro. The DMSO-treated DNMT mRNAs are over 1.0, meaning the level of expression is higher than the housekeeping control gene, CAP1. In FIG. 10B, AKB-6899 inhibited DNMT-3a and DNMT-3b transcription in human adenocarcinoma lung cancer cells (A549). The DMSO-treated DNMT mRNAs are under 1.0, meaning the level of expression is lower than the housekeeping control gene, CAP1.

[4] = tested on: 23 different gene promoters; test: Percent methylation of 23 gene promoters in A549 adenocarcinoma; type: cell-based, human; conditions: A549, 10 μM and 50 μM, compared to DMSO
Description: FIGS. 11A-11D show the percent methylation for 23 different gene promoters in two types of human lung cancer cells—FIGS. 11A and 11B are directed at H1703 squamous cell carcinoma and FIG. 11C and FIG. 11D are directed at A549 adenocarcinoma. DMSO was used as a vehicle and was used as a control. […] The Dec/PBA condition represents a combination of 5 μM Decitabine (5-aza-2′deoxycytidine (5-AZA), which is a demethylating agent) and 2 mM […] (PBA, HDAC inhibitor). In all promoters tested, and in both types of lung cancer, AKB-6899 demethylated the gene promoters such that the level of % DNA methylation following AKB-6899 treatment was below the level of % DNA methylation of the DMSO-treated control cells (DMSO).

BEAS-2B cells = test: XTT cell survival assay, normal lung epithelial cells; type: cell-based; conditions: BEAS-2B normal lung epithelial cells, even at the highest dose (FIG. 13A)
From the text: as §1

DNMT-3a [5] = test: DNMT-3a mRNA expression by RT-PCR in PyMT tumor cells; type: cell-based, mouse; conditions: for DNMT-3a mRNA expression: PyMT tumor cells, 24 hours, compared to DMSO (FIG. 1A)
Description: as §3, §2

[6] = PyMT tumor cells in culture, concentration not given

O=C(O)CNC(=O)c1ncc(-c2cccc(F)c2)cc1O [AKB-6899, {[5-(3-Fluorophenyl)-3-hydroxypyridine-2-carbonyl]amino}acetic acid]
cell survival / toxicity [1]: pronounced toxicity | cell survival / toxicity (A549 adenocarcinoma): pronounced toxicity | cell death by Trypan Blue (PyMT tumor cells): no cell death | DNMT-3a mRNA expression (DNMT-3a [2]): significantly decreased; also recorded: downregulated | demethylation of DSP promoter (percent CpG methylation) (DSP promoter): increase in demethylation | DNMT-1 mRNA level (DNMT-1; [6]): significant decreases; also recorded: downregulated | DNMT-1 mRNA expression (DNMT-1; 10 μM): significantly inhibited | DNMT-1 mRNA expression (DNMT-1; 25 μM): significantly inhibited | DNMT-1 mRNA expression (DNMT-1; 50 μM): significantly inhibited | level of hypomethylation of desmoplakin promoter (in words) [3]: near complete | DSP promoter unmethylated ([3]; 25 μM (FIG. 3D)): 92.48% | DNMT-3b transcription (DNMT-3b): inhibited | percent DNA methylation of 23 gene promoters [4]: decreased the percent of DNA methylation in a dose response fashion | cell survival (BEAS-2B cells): no significant decrease | DNMT-3a mRNA level (DNMT-3a [5]; [6]): significant decreases; also recorded: downregulated | DNMT-3a mRNA expression (DNMT-3a [5]; 25 μM): significantly inhibited | DNMT-3a mRNA expression (DNMT-3a [5]; 50 μM): significantly inhibited
